Laboratory results taken from publication PMC3285688, “Active Site Mutations Change the Cleavage Specificity of Neprilysin” (PLoS ONE, 2012).

Legend:
[1] = system: NEP and each of the studied mutants; assay: Inhibition of Glut-Ala-Ala-Phe-MNA hydrolysis by NEP inhibitors; assay type: biochemical, human
Protocol: Reactions of 400 µl contained 100 µM Glut-Ala-Ala-Phe-MNA, 1 µg of aminopeptidase and 15 to 100 ng of NEP or mutant NEP depending on their activity in 20 mM MES buffer, pH 6.5. Activity was monitored with a Spectra Max Gemini XS plate reader using an excitation wavelength of 340 nm and an emission wavelength of 425 nm.

NEP [2] = settings: cited from earlier work
Text: Two other studies have identified NEP cleavage sites within Aß1–40 [25], [26].

NEP [3] = assay: Degradation of peptide substrates by NEP: extent and cleavage sites (HPLC, mass spectrometry); settings: for Cleavage site (bond cleaved): NEP and mutants, 20 mM MES pH 6.5, 37°C
Protocol: Degradation of insulin B chain by wild-type NEP was analyzed by reverse-phase HPLC following the appearance of each product as a function of time, Figure 1 . Product peaks were collected and subsequently analyzed by mass spectrometry to determine their identities. […] Based on the order of appearance of each peak, it is likely that insulin B chain1–10, insulin B chain1–11, insulin B chain1–14 and its partner peak insulin B chain15–30, insulin B chain17–30, and insulin B chain24–30 are all products of primary cleavages. These products appear at the first time point when approximately 15% hydrolysis of insulin B chain had occurred (30 minutes). At 30% hydrolysis (90 min.), peaks corresponding to insulin B chain1–5 and insulin B chain17–24 are observed. Peaks for insulin B chain1–16 and insulin B chain15–23 become apparent at >30% insulin B chain hydrolysis. […] It is likely that these are transient products that are subsequently cleaved contributing to other product peaks (i.e. insulin B chain24–30).
To further study the effect of mutations on cleavage site specificity, time course assays were also performed for the hydrolysis of the physiological substrate Aß1–40. Like the analysis of insulin B chain, a time course assay was first done with NEP to identify cleavage products, Figure 3 and Table 6 . After 15% hydrolysis of Aß1–40 (150 min.) by NEP there were six discernable product peaks corresponding to Aß1–16, Aß1–17, Aß10–17, Aß20–28, Aß20–29, and Aß20–30. […]
Cleavage of physiological peptides was measured via reverse phase high performance liquid chromatography (HPLC) following incubation of the purified NEP or its mutants with 15 µM insulin B chain (Sigma Aldrich), 24 µM Aß1–40 (Anaspec), or 64 µM leu-ENK (Sigma) in 100 µL of 20 mM MES, pH 6.5, at 37°C. […] Peptides and hydrolysis products were detected at 214 nm and quantified by measuring peak areas. Peptides obtained from HPLC were analyzed on an Applied Biosystems 4800 MALDI TOF/TOF Proteomics Analyzer at the University of Kentucky Proteomics core. […]

In the case of `CC(C)C[C@H](NP(=O)(O)O[C@@H]1O[C@@H](C)[C@H](O)[C@@H](O)[C@H]1O)C(=O)N[C@@H](Cc1c[nH]c2ccccc12)C(=O)O` [phosphoramidon], the “Inhibition of Glut-Ala-Ala-Phe-MNA hydrolysis” value ([1]; inhibitor at 100 µM) is reported as “completely inhibited”.

For “Aß1–40: amyloid beta peptide 1–40, physiological substrate (Anaspec)”, the “Cleavages of Aß1–40 detected by Leissring et al.” value (NEP [2]) is listed as “Cleavages at K^28-G^29 and G^29-A^30”, the “Cleavages of Aß1–40 detected in two other studies and the current study” value (NEP [2]) is listed as “G^9-Y^10, F^19-F^20, and A^30-I^31” and the “Additional unreported cleavage sites detected in Aß1–40” value (NEP [3]) is listed as “E^11-V^12, K^16-L^17, and L^17-V^18”.

In the case of “Tyr-Gly-Gly-Phe-Leu [leu-ENK, leucine^5-enkephalin, leucine5-enkephalin (Tyr-Gly-Gly-Phe-Leu), physiological substrate]”, the “Cleavage site (bond cleaved)” value (NEP [3]) is reported as “Gly-Phe bond”.

In the case of “glutaryl-Ala-Ala-Phe-4-methoxy-2-naphthylamide [Glut-Ala-Ala-Phe-MNA, fluorogenic peptide substrate]”, the “Cleavage site (bond cleaved)” value (NEP [3]) is reported as “Ala-Phe peptide bond”.

For `O=C(O)CCNC(=O)[C@H](Cc1ccc(-c2ccccc2)cc1)NCP(=O)(O)O` [CGS 24592], the “Inhibition of Glut-Ala-Ala-Phe-MNA hydrolysis” value ([1]; inhibitor at 10 nM) was “completely inhibited”.
